{"source": "paper PMC4129108", "about": "“The natural triterpene 3β,6β,16β-trihydroxy-lup-20(29)-ene obtained from the flowers of Combretum leprosum induces apoptosis in MCF-7 breast cancer cells” (BMC Complementary and Alternative Medicine, 2014)", "test_system": "cleaved caspase-9 in MCF-7 cells", "experiment": "Quantification of cleaved caspase-9 by flow cytometric analysis", "type": "cell-based, human", "details": "MCF-7, 24 h", "protocol": "Cells (2 × 10^5 cells/mL) were seeded on 6-well tissue culture plates, and grown for 1 day up to 70–80% confluence before treatment with the test substance. The TTHL was added to medium with FBS to obtain the different concentrations, and cells were treated at 37°C for 24 h in humidified atmosphere containing 5% CO2.\nAfter treatment, cells (1 × 10^6) were harvested, resuspended in 25 μL PBS and fixed with 4% formaldehyde. After permeabilization and blocking (0.2% Triton X-100 in PBS and 1% BSA), cells were incubated with anti-caspase-9 antibody (diluted 1:1000) for 1 h at room temperature, followed by incubation with anti-rabbit FITC secondary antibody (Uniscience) (diluted 1:1000) for 1 h at room temperature in the dark. A total of 10,000 events were analyzed per sample by FACS Calibur flow cytometer. Fluorescence intensity in arbitrary units was plotted in histograms; the mean fluorescence intensity was calculated using CellQuest software.", "data": [{"smiles": "C=C(C)[C@@H]1CC[C@@]2(C)[C@H]1[C@H]1CC[C@@H]3[C@@]4(C)CC[C@H](O)C(C)(C)[C@@H]4[C@H](O)C[C@@]3(C)[C@]1(C)C[C@@H]2O", "note": "[TTHL, 3β,6β,16β-trihydroxy-lup-20(29)-ene]", "values": [{"measurement": "levels of cleaved caspase-9", "setting": "TTHL at IC20", "result": "no significant changes"}, {"measurement": "induction of cleaved caspase-9-labeled cells", "setting": "TTHL at IC50", "result": "increased induction of cleaved caspase-9-labeled cells"}, {"measurement": "induction of cleaved caspase-9-labeled cells", "setting": "TTHL at IC80", "result": "increased induction of cleaved caspase-9-labeled cells"}]}]}
